Conditions: Liquid, Vibrating tube method

CCCCO [butan-1-ol]
mass density [kg/m3]
Conditions | 343.15 K | 353.15 K | 363.15 K | 373.15 K
100 kPa | – | 760.9 | 751.9 | 742.4
10000 kPa | – | 770.6 | 762.6 | 753.4
20000 kPa | – | 779.2 | 771.7 | 763.3
30000 kPa | – | 787.1 | 780.1 | 772.2
40000 kPa | – | 794.3 | 787.4 | 780
50000 kPa | – | 800.9 | 794.3 | 787.2
60000 kPa | – | 807.7 | 800.9 | 793.8
70000 kPa | – | 813.2 | 807 | 800.2
80000 kPa | – | 818.9 | 812.5 | 805.8
90000 kPa | – | 823.9 | 817.9 | 811.5
100000 kPa | – | 828.8 | 822.9 | 817
110000 kPa | – | 833.5 | 827.7 | 821.9
120000 kPa | – | 838.1 | 832.4 | 826.3
130000 kPa | – | 842.1 | 836.8 | –
140000 kPa | 851.6 | 846.5 | 841 | –
